According to paper doi:10.1101/2024.03.22.586364, “Development of quantitative high-throughput screening assays to identify, validate, and optimize small-molecule stabilizers of misfolded β-glucocerebrosidase with therapeutic potential for Gaucher disease and Parkinson’s disease” (bioRxiv, 2024):
Residue numbers refer to the chain shown, from its start. Counter-ions that a name gives are not always drawn.

What was measured:
HiBiT-GCase-WT = target: T1, HiBiT-GCase-WT (Homo sapiens, UniProt P04062); experiment: HiBiT-GCase-WT lytic luminescence assay, H4 reporter cells; format: cell-based; conditions: 24 h treatment, 1536-well format
T1 construct: expressed in transfected cells; host or cells: GBA1-KO H4 human neuroglioma cells; transgene stably integrated at the CLYBL safe-harbor locus by TALENs; CAG promoter
T1 sequence (P04062 40-536): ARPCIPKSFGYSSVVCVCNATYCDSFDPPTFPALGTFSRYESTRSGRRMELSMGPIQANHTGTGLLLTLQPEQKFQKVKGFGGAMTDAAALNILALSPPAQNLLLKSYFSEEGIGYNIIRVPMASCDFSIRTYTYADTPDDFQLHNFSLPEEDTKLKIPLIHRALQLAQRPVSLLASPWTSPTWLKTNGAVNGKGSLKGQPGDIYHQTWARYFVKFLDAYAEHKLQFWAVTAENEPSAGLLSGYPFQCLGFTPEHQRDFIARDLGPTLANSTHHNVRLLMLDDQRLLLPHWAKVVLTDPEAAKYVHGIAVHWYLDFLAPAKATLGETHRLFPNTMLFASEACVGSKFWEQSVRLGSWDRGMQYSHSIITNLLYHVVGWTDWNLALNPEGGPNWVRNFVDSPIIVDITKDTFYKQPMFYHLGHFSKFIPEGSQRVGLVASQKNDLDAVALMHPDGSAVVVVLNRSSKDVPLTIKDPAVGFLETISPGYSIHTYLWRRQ
Description: (§1) Figure 1. HiBiT-tagged GCase retains normal trafficking and function, enabling a high-throughput screening assay measuring cellular GCase levels. (A) GCase was labeled with a small (1.3 kDa), pro-luminescent, N-terminal HiBiT peptide tag immediately following the signal peptide (SP) sequence. (B) This HiBiT-GCase reporter (WT, N370S, or L444P) was engineered into a human Citrate Lyase Beta-Like (CLYBL) intragenic safe-harbor locus within a GBA1-KO H4 cell background using TALEN-enhanced integrative gene transfer. (C) Co-localization of GCase (green) with lysosomal marker LAMP1 (magenta) was determined by immunofluorescent staining. […] (G) GCase protein levels were quantitated by AlphaLISA (Amplified Luminescent Proximity Homogeneous Assay) utilizing a sandwich configuration of two monoclonal antibodies recognizing non-overlapping epitopes, hGCase-1/23 (which was biotinylated and associated with a streptavidin-coated donor bead) and hGCase-1/17 (which was directly conjugated to an acceptor bead). […] (H) GCase activity was measured in cell lysates using the fluorogenic substrate 4-methylumbelliferyl-β-D-glucopyranoside. Relative GCase activity was calculated by adjusting for protein concentration, correcting for GBA1-KO H4 cell background, and normalizing to GBA1-WT signal. […]

HiBiT-GCase-N370S = target: T2, HiBiT-GCase-N370S (Homo sapiens, UniProt P04062, N409S); experiment: HiBiT-GCase-N370S lytic luminescence assay, H4 reporter cells; format: cell-based; conditions: 24 h treatment, 1536-well format
T2 construct: expressed in transfected cells; host or cells: GBA1-KO H4 human neuroglioma cells; transgene stably integrated at the CLYBL safe-harbor locus by TALENs; CAG promoter
T2 sequence (P04062 40-536 N409S): T1 sequence (P04062 40-536) with N370S
Description: as §1

recombinant GCase-WT = target: T3, recombinant GCase-WT (Homo sapiens, UniProt P04062); experiment: Microscale thermophoresis (MST) target engagement; format: binding; conditions: 50 mM sodium citrate buffer (pH 5.5); n = 2; read-out: dissociation constant (Kd)
T3 construct: purchased Bio-Techne 7410-GHB-020
T3 sequence (P04062 40-536): T1 sequence (P04062 40-536)
Description: Microscale thermophoresis (MST) experiments were performed using the Monolith NT.Automated instrument (NanoTemper Technologies). […] The recombinant GCase was further diluted with assay buffer (50 mM sodium citrate, pH 5.5) to 0.160 mg/mL and incubated (RT) for 30 min with 50 nM RED-tris-NTA 2nd Generation dye from the Monolith His-Tag Labeling Kit (Cat.#MO-L018; NanoTemper Technologies). The labeling reaction mixture was centrifuged for 10 min at 4°C and 15,000 × g to remove protein aggregates, after which the supernatant was diluted 2.5x with assay buffer. For each compound measured, a 12-point, 2x titration series of compound in DMSO was prepared; 1 μL of compound in DMSO from each point in the titration series was combined with 9 μL of assay buffer and 10 μL of labeled GCase in a 384-well plate, which was left standing for 30 min (RT). The resultant final concentration of labeled GCase was ~570 nM (in 5% DMSO).

[1] = system: integrated stress response (ISR); design: method as in PMID 23741617; conditions: read-out: IC50 (potency with which ISRIB modifies its target); cited from earlier work

For `C#Cc1ccc(NC(=O)c2cnn3c(C)cc(C)nc23)cc1` [NCGC758], the “effect on HiBiT-GCase-WT levels (in words)” value (HiBiT-GCase-WT) was “inactive in all three lines” and the “effect on HiBiT-GCase-N370S levels (in words)” value (HiBiT-GCase-N370S) was “inactive in all three lines”.

With `O=C(COc1ccccc1C(=O)Nc1ccc(I)cc1)Nc1ccc(I)cc1` [NCGC00241326-01, N-(4-iodophenyl)-2-(2-((4-iodophenyl)amino)-2-oxoethoxy)benzamide] the Kd (recombinant GCase-WT) was 3750 nM.

For `Nc1c(Br)cc(Br)cc1CN[C@H]1CC[C@H](O)CC1` [NCGC00371077-02, Ambroxol HCl], the “effect on HiBiT-GCase-WT levels (in words)” value (HiBiT-GCase-WT) was “increased HiBiT-GCase levels in all three lines” and the “effect on HiBiT-GCase-N370S levels (in words)” value (HiBiT-GCase-N370S) was “increased HiBiT-GCase levels in all three lines”.

For `O=C(COc1ccc(Cl)cc1)N[C@H]1CC[C@H](NC(=O)COc2ccc(Cl)cc2)CC1` [NCGC00384174-12, trans-ISRIB], the IC50 [1] is given as 5 nM.
